Laboratory results: ChEMBL document CHEMBL3758113, “Stelliosphaerols A and B, Sesquiterpene-Polyol Conjugates from an Ecuadorian Fungal Endophyte” (2015)
Values after ≈ are worked out from the molar mass of the structure shown.

Tested on: Staphylococcus aureus
Assay: Antibacterial activity against Staphylococcus aureus measured every 10 mins for 8 hrs by liquid culture growth inhibition assay
Format: functional

Row | SMILES | MIC
1 | CC1=CCC[C@@H](C)[C@]1(C)CC/C(=C/CO[C@@H]([C@H](O)[C@H](O)CO)[C@H](O)CO)CO | 250 µg/mL (≈ 621 µM)
2 | CC1=CCC[C@@H](C)[C@]1(C)CC/C(C)=C/CO[C@@H]([C@H](O)[C@H](O)CO)[C@H](O)CO | 250 µg/mL (≈ 647 µM)
